From ChEMBL document CHEMBL1139041, “Design and synthesis of 2'-anilino-4,4'-bipyridines as selective inhibitors of c-Jun N-terminal kinase-3” (Bioorg Med Chem Lett, 2006)
In brackets after ≈: the same amount, converted by molar mass.

Columns and labels:
[1] = Intrinsic clearance in rat microsomes; type: ADME, Microsome; details: liver microsomes
[2] = Permeability across Caco-2 cell membrane; type: ADME, cell-based; details: human, read-out: permeability
[3] = Bioavailability in rat; type: ADME, organism-based; details: in vivo
[4] = Clearance in rat; type: ADME, organism-based; details: in vivo
[5] = Half life in po dosed rat; type: ADME, organism-based; details: in vivo
[6] = Solubility in phosphate buffer at pH 7.4; type: physicochemical

| solubility [6] | Compound | further results |
| --- | --- | --- |
| 8 µM (≈ 3.22 µg/mL) | COC1CCC(C(=O)Nc2cc(-c3ccnc(Nc4ccccc4)c3)ccn2)CC1 (configuration not stated) | – |
| 17 µM (≈ 6.25 µg/mL) | O=C(Nc1cc(-c2ccnc(Nc3ccccc3)c2)ccn1)c1cccnc1 | – |
| < 0.1 µM | Fc1ccc(Nc2cc(-c3ccnc(Nc4ccc(F)cc4)c3)ccn2)cc1 | – |

The next lines start with the compound.

| Compound | solubility [6] | further results |
| --- | --- | --- |
| O=C(Nc1cc(-c2ccnc(Nc3ccccc3)c2)ccn1)C1CCOC1 (configuration not stated) | – | microsomal CLint [1]: 12 µL/min/mg; Papp [2]: 29.9 ×10⁻⁶ cm/s; bioavailability [3]: 16%; clearance [4]: 30 mL/min/kg; half-life [5]: 4.7 h |
| CC(=O)N1CCC(C(=O)Nc2cc(-c3ccnc(Nc4ccccc4)c3)ccn2)CC1 | 94 µM (≈ 39.1 µg/mL) | – |
| COCCC(=O)Nc1cc(-c2ccnc(Nc3ccccc3)c2)ccn1 | 20 µM (≈ 6.97 µg/mL) | – |
| Cc1cnc(C(=O)Nc2cc(-c3ccnc(Nc4ccccc4)c3)ccn2)cn1 | 40 µM (≈ 15.3 µg/mL) | – |
| O=C(Nc1cc(-c2ccnc(Nc3ccccc3)c2)ccn1)c1ccco1 | 4 µM (≈ 1.43 µg/mL) | – |
